From patent US20260207623A1, “USE OF ESTETROL IN HEPATICALLY IMPAIRED PATIENTS” (ESTETRA SRL, priority 2022, published 2026)

Assay: Phase 1 pharmacokinetic study of a single oral dose of 20 mg E4 monohydrate in female subjects with normal hepatic function and mild, moderate or severe hepatic impairment (plasma, LC-MS/MS, non-compartmental analysis)
Type: in vivo, human
Conditions: for AUC0-24 h, GM / AUC0-24 h, Mean / AUC0-24 h, Median / AUCinf, GM / AUCinf, Mean / AUCinf, Median / AUClast, GM / AUClast, Mean / AUClast, Median / Cmax, GM / Cmax, Mean / Cmax, Median / T1/2, GM / T1/2, Mean / T1/2, Median / Tmax, Median / λz, GM / λz, Mean / λz, Median: single oral dose 20 mg E4 monohydrate, plasma
Experimental: This was a Phase 1, multi-centre, open-label, PK, and safety study of a single oral dose of 20 mg E4 monohydrate in female subjects with normal hepatic function (Group 1), mild hepatic impairment (Group 2), moderate hepatic impairment (Group 3), and severe hepatic impairment (Group 4), as defined using the Child-Pugh classification at Screening.
The study consisted of an eligibility Screening period (within 28 days prior to study drug administration), an Assessment Period with in-house period and outpatient visits (including a single oral dose of 20 mg E4 on Day 1), and a follow up visit. All subjects were confined to the study site from Day-1 (the day before dosing) until Day 4 and returned to the site every day from Day 5 to Day 9. Alternatively, the subjects could stay for a prolonged in-house period in agreement with the Investigator. The follow-up visit occurred on Day 14 (+2 days).
All subjects arrived at the study site in the morning of Day-1 in a fasted state (no food for at least 8 h, water was allowed) to have the scheduled assessments performed in order to confirm eligibility as outlined in the inclusion and exclusion criteria (Section 2.3.1 and Section 2.3.2, respectively). In the morning of Day 1 following an overnight fast, the subjects received oral dosing of 20 mg E4 monohydrate and remained at the site. Study-related assessments were performed at time points indicated in the Schedule of Assessments in Table 2.
Serial blood sampling for PK assessments started on Day 1 and proceeded until Day 9 according to the Pharmacokinetic Sampling Schedule presented in Table 3.
Each enrolled subject was to receive a single oral dose of 20 mg of E4 (estetrol) as monohydrate as a film-coated tablet.
Study drug was administered to subjects in the morning after an overnight fast of at least 8 h.
Calculation of non-compartmental PK parameters were done using WinNonlin™ Professional, Version 6.3 or higher.
The primary PK parameters to be analyzed for E4 in plasma: • Cmax=maximum observed plasma concentration • AUCinf=area under the concentration-time curve (AUC) from time zero extrapolated to infinity
The analysis of E4 and the metabolites E4-3-glucuronide and E4-16-glucuronide in plasma samples were performed at the Bioanalytical Laboratory of the CRO using a validated liquid chromatography-mass spectrometry/mass spectrometry method.
Individual and mean plasma concentrations at each sampling time point for E4 are presented by listings and descriptive summary statistics including means, geometric means (GMs), medians, ranges, standard deviations (SD) and coefficients of variation (CV). Individual, mean and/or median concentrations per hepatic function group were plotted versus time on semilogarithmic scales.
PK parameters were calculated by non-compartmental analysis. PK parameters were analysed using descriptive statistics and are presented by hepatic function group.
Analysis of variance (ANOVA) were used to compare primary PK parameters of E4 (Cmax and AUCinf) between subjects with hepatic impairment and subjects with normal hepatic function in an exploratory approach, using the log-transformed value of each PK parameter as dependent variable, and the hepatic impairment group (normal, mild, moderate, and severe) as a fixed classification factor. Geometric least squares means were used to calculate the ratios of primary PK parameters for each hepatic impairment group to those in the control group, along with 90% confidence intervals (CIs).
Additionally, the impact of age and BMI on the effect of hepatic impairment were evaluated using an ANOVA model similar as the ANOVA model described above, but with the interaction between each factor and the hepatic impairment group included as an additional factor.
The relationship between log-transformed PK parameters (Cmax and AUCinf) and continuous parameters (albumin, total bilirubin, and prothrombin time) used for the Child-Pugh score was explored by a linear regression approach. […]

AUC0-24 h, GM (Mild hepatic impairment): 315.86 ng·h/mL
AUC0-24 h, Mean (Mild hepatic impairment): 322.40 ng·h/mL
AUC0-24 h, Median (Mild hepatic impairment): 302.66 ng·h/mL
AUCinf, GM (Mild hepatic impairment): 497.24 ng·h/mL
AUCinf, Mean (Mild hepatic impairment): 506.96 ng·h/mL
AUCinf, Median (Mild hepatic impairment): 483.73 ng·h/mL
AUClast, GM (Mild hepatic impairment): 473.28 ng·h/mL
AUClast, Mean (Mild hepatic impairment): 483.07 ng·h/mL
AUClast, Median (Mild hepatic impairment): 440.22 ng·h/mL
Cmax, GM (Mild hepatic impairment): 113.610 ng/mL
Cmax, Mean (Mild hepatic impairment): 118.113 ng/mL
Cmax, Median (Mild hepatic impairment): 114.000 ng/mL
T1/2, GM (Mild hepatic impairment): 23.130 h
T1/2, Mean (Mild hepatic impairment): 24.540 h
T1/2, Median (Mild hepatic impairment): 24.692 h
Tmax, Median (Mild hepatic impairment): 29.4 min
λz, GM (Mild hepatic impairment): 0.0300 h⁻¹
λz, Mean (Mild hepatic impairment): 0.0318 h⁻¹
λz, Median (Mild hepatic impairment): 0.0281 h⁻¹
AUC0-24 h, GM (Moderate hepatic impairment): 269.04 ng·h/mL
AUC0-24 h, Mean (Moderate hepatic impairment): 282.87 ng·h/mL
AUC0-24 h, Median (Moderate hepatic impairment): 299.08 ng·h/mL
AUCinf, GM (Moderate hepatic impairment): 363.25 ng·h/mL
AUCinf, Mean (Moderate hepatic impairment): 388.13 ng·h/mL
AUCinf, Median (Moderate hepatic impairment): 412.85 ng·h/mL
AUClast, GM (Moderate hepatic impairment): 311.58 ng·h/mL
AUClast, Mean (Moderate hepatic impairment): 336.84 ng·h/mL
AUClast, Median (Moderate hepatic impairment): 325.82 ng·h/mL
Cmax, GM (Moderate hepatic impairment): 111.990 ng/mL
Cmax, Mean (Moderate hepatic impairment): 122.863 ng/mL
Cmax, Median (Moderate hepatic impairment): 133.000 ng/mL
T1/2, GM (Moderate hepatic impairment): 14.390 h
T1/2, Mean (Moderate hepatic impairment): 17.084 h
T1/2, Median (Moderate hepatic impairment): 14.153 h
Tmax, Median (Moderate hepatic impairment): 60 min
λz, GM (Moderate hepatic impairment): 0.0500 h⁻¹
λz, Mean (Moderate hepatic impairment): 0.0560 h⁻¹
λz, Median (Moderate hepatic impairment): 0.0502 h⁻¹
AUC0-24 h, GM (Normal hepatic function): 279.86 ng·h/mL
AUC0-24 h, Mean (Normal hepatic function): 290.53 ng·h/mL
AUC0-24 h, Median (Normal hepatic function): 309.09 ng·h/mL
AUCinf, GM (Normal hepatic function): 458.11 ng·h/mL
AUCinf, Mean (Normal hepatic function): 485.88 ng·h/mL
AUCinf, Median (Normal hepatic function): 495.16 ng·h/mL
AUClast, GM (Normal hepatic function): 446.22 ng·h/mL
AUClast, Mean (Normal hepatic function): 474.51 ng·h/mL
AUClast, Median (Normal hepatic function): 485.66 ng·h/mL
Cmax, GM (Normal hepatic function): 68.240 ng/mL
Cmax, Mean (Normal hepatic function): 73.238 ng/mL
Cmax, Median (Normal hepatic function): 70.100 ng/mL
T1/2, GM (Normal hepatic function): 19.540 h
T1/2, Mean (Normal hepatic function): 20.112 h
T1/2, Median (Normal hepatic function): 18.583 h
Tmax, Median (Normal hepatic function): 30 min
λz, GM (Normal hepatic function): 0.0400 h⁻¹
λz, Mean (Normal hepatic function): 0.0364 h⁻¹
λz, Median (Normal hepatic function): 0.0373 h⁻¹
AUC0-24 h, GM (Severe hepatic impairment): 299.07 ng·h/mL
AUC0-24 h, Mean (Severe hepatic impairment): 314.97 ng·h/mL
AUC0-24 h, Median (Severe hepatic impairment): 264.88 ng·h/mL
AUCinf, GM (Severe hepatic impairment): 332.77 ng·h/mL
AUCinf, Mean (Severe hepatic impairment): 367.42 ng·h/mL
AUCinf, Median (Severe hepatic impairment): 305.49 ng·h/mL
AUClast, GM (Severe hepatic impairment): 325.76 ng·h/mL
AUClast, Mean (Severe hepatic impairment): 360.81 ng·h/mL
AUClast, Median (Severe hepatic impairment): 296.24 ng·h/mL
Cmax, GM (Severe hepatic impairment): 93.970 ng/mL
Cmax, Mean (Severe hepatic impairment): 96.250 ng/mL
Cmax, Median (Severe hepatic impairment): 91.550 ng/mL
T1/2, GM (Severe hepatic impairment): 7.710 h
T1/2, Mean (Severe hepatic impairment): 8.652 h
T1/2, Median (Severe hepatic impairment): 6.277 h
Tmax, Median (Severe hepatic impairment): 30.6 min
λz, GM (Severe hepatic impairment): 0.0900 h⁻¹
λz, Mean (Severe hepatic impairment): 0.1005 h⁻¹
λz, Median (Severe hepatic impairment): 0.1104 h⁻¹
time to primary peak of GM plasma concentrations (all groups): ≤ 1 h
Tmax was reached within (mild hepatic impairment): ≤ 2 h
time post dose until which concentrations remained above LLOQ in at least half of the subjects (mild hepatic impairment): 96 h
Tmax was reached within (moderate hepatic impairment): ≤ 2 h
time post dose until which concentrations remained above LLOQ in at least half of the subjects (moderate hepatic impairment): 48 h
time post dose until which concentrations remained above LLOQ in at least half of the subjects (normal hepatic function): 96 h
Tmax was reached within (normal hepatic function (due to an outlier)): ~ 6 h
Tmax was reached within (severe hepatic impairment): ≤ 1 h
time post dose until which concentrations remained above LLOQ in at least half of the subjects (severe hepatic impairment): 36 h
SMILES: CC12CCC3c4ccc(OC5OC(C(=O)O)C(O)C(O)C5O)cc4CCC3C1C(O)C(O)C2O (stereo not shown) [E4-3-glucuronide, estetrol-3-glucuronide]
